Source: US5721223A, “Imidazo[1,2-a] Pyridinyldiacid compounds for cognitive enhancement and for treatment of cognitive disorders and neurotoxic injury” (priority 1995, dated 1998)
Where a name gives a salt, the structure may show the parent alone.

Target: T1, glycine receptor site (Rattus norvegicus, UniProt P35439)
T1 construct: Synaptic plasma membranes (SPM) were prepared from rat forebrain; from tissue; host or cells: rat forebrain synaptic plasma membranes
Assay: Glycine binding assay ([3H]GLY)
Conditions: [3H]glycine 10 nM, rat forebrain SPM
Experimental: Synaptic plasma membranes (SPM) were prepared from rat forebrain and stored as previously described [J. B. Monahan and J. Michel, J. Neurochem, 48, 1699-1708 (1987)]. Frozen membranes were thawed and diluted 1:20 with 0.04% Triton X-100 in 50 mM tris/acetate (pH 7.4). Following incubation at 37° C. for 30 min., the SPM were collected by centrifugation at 95,000×g for 15 min. The pellet was resuspended in 50 mM tris/acetate (pH 7.4, Triton-free) and hand-homogenized five times. The membranes were again centrifuged as above. The pellet was washed two additional times with 50 mM tris/acetate (without homogenization) and centrifuged. The final pellet was resuspended with homogenization in 50 mM tris/acetate. In the general receptor binding assay procedure, 10 nM [3H]glycine was added to the appropriate concentration of the test compounds and the assay initiated by the addition of 0.2-0.4 mg of ice cold SPM. […] Beckman MP scintillation cocktail (5 mL) containing 7 mL/liter acetic acid was then added and the samples counted on a Beckman LS 5800 liquid scintillation counter with automatic corrections for quenching and counting efficiency. […] The binding of [3H]glycine to the SPM was analyzed using Scatchard and Hill transformations and the Ki for other compounds was determined using logit-log analysis. […]

Ki: 51 µM
Compound: O=C(O)Cc1c(C(=O)O)nc2ccccn12 [Example 3, hydrochloride]
